# Measurements from patent US9409952B2, “Peptide-compound cyclization method” (Chugai Seiyaku Kabushiki Kaisha, priority 2011, dated 2016).
# Starred links: 1 amine or outer side, 2 acyl side, 3 side chain; linkers in the order of their positions; H or OH if unused. Positions of bridges follow the written chain, without caps; N, C: chain ends. Non-standard residues stand in square brackets, D forms with d. Residues, ends and D or L forms follow the SMILES beside them. *: point of attachment. NMeF = CN[C@@H](Cc1ccccc1)C(=O)O; NMeβAla = CN(CCC(=O)[*:2])[*:1]; NMeL = CN[C@@H](CC(C)C)C(=O)O; NMeV = CN[C@H](C(=O)O)C(C)C; NMeA = CN[C@@H](C)C(=O)O; Piperidide = C1CCN(*)CC1; dNMeA = CN[C@H](C)C(=O)O; Sar = CNCC(=O)O; tBu = CC(C)(C)*
# Experiment: PAMPA (parallel artificial membrane permeability assay)
# Assay type: in vitro ADME
# Conditions: PAMPA, pH 6.5
# Protocol: 4 μL of a phospholipid-organic solvent solution composed of 10% (w/v) of egg lecithin, 0.5% (w/v) of cholesterol and dodecane (all purchased from Fluka) was added to a Millipore 96-well membrane filter (hydrophobic PVDF (polyvinylidene difluoride), pore size 0.45 microm) (purchased from Millipore Japan) to make an artificial phospholipid membrane.
# A DMSO solution containing the compound at a concentration of 10 mM was added in a percentage of 0.5% (v/v) to a 50 mM MOPSO buffer, pH 6.5, containing 5.0% (w/v) of glycocholic acid, and 330 μL of the mixture was added to a 96-well plate made of Teflon (donor plate). The above artificial phospholipid membrane plate was attached onto the donor plate, and 280 μL of a solution obtained by adding DMSO in a percentage of 0.5% (v/v) to a 50 mM MOPSO buffer, pH 6.5, containing 5.0% (w/w) of glycocholic acid was added onto the artificial phospholipid membrane (acceptor plate). These plates were allowed to stand at 37° C. for 18 hours, after which the concentrations of the compound in the solutions in the donor plate and the acceptor plate were measured by LC/MS or LC/UV, and the membrane permeation rate of the compound (Pe) was calculated by the following formulas (1) and (2), where t is the testing time, A is the membrane filter area, VD is the amount of the donor solution, VA is the amount of the acceptor solution, CD,t is the concentration of the compound in the donor solution at the time t, and CA,t is the concentration of the compound in the acceptor solution at the time t.
row,SMILES,"Papp at 18 hours, 50 µM [×10⁻⁶ cm/s]"
1,CC[C@H](C)[C@@H]1NC(=O)[C@H](Cc2ccccc2)N(C)C(=O)[C@H]([C@@H](C)O)NC(=O)[C@@H](C)NC(=O)C[C@@H](C(=O)N(C)[C@@H](Cc2ccccc2)C(=O)N(C)[C@@H](Cc2ccccc2)C(=O)N[C@@H](C)C(=O)N2CCCCC2)NC(=O)[C@H](CC(C)C)N(C)C(=O)[C@H](CC(C)C)N(C)C(=O)[C@H](Cc2ccccc2)N(C)C(=O)[C@H](CC(C)C)N(C)C(=O)[C@H](C)N(C)C1=O [DP-289] ([dA]T[NMeF]I[NMeA][NMeL][NMeF][NMeL][NMeL]D[NMeF][NMeF]A-Piperidide; lactam N-10),0.14
2,CC[C@H](C)[C@@H]1NC(=O)[C@H](CC(C)C)N(C)C(=O)[C@H](C)N(C)C(=O)[C@H]([C@@H](C)O)NC(=O)[C@H](CC(C)C)N(C)C(=O)[C@H](Cc2ccccc2)N(C)C(=O)[C@@H](C(C)C)NC(=O)C[C@@H](C(=O)N(C)[C@@H](Cc2ccccc2)C(=O)N[C@@H](C)C(=O)N2CCCCC2)NC(=O)[C@H](C(C)C)N(C)C1=O [DP-308] ([dV][NMeF][NMeL]T[NMeA][NMeL]I[NMeV]D[NMeF]A-Piperidide; lactam N-9),27
3,CC(C)C[C@H]1C(=O)N(C)[C@@H](Cc2ccccc2)C(=O)NCC(=O)N(C)[C@@H](Cc2ccccc2)C(=O)N(C)[C@@H](C)C(=O)N[C@@H]([C@@H](C)O)C(=O)N[C@H](C(=O)N(C)[C@@H](Cc2ccccc2)C(=O)N(C)[C@@H](Cc2ccccc2)C(=O)N[C@@H](C)C(=O)N2CCCCC2)CC(=O)N(C)CCC(=O)N[C@@H](C(C)C)C(=O)N1C [DP-312] ([NMeβAla]V[NMeL][NMeF]G[NMeF][NMeA]TD[NMeF][NMeF]A-Piperidide; lactam N-9),47

# Same assay, conditions: PAMPA; membrane permeation rate (Pe); 50 mM MOPSO buffer pH 6.5 with 5.0% glycocholic acid, 37° C., 18 hours; read-out: iPAMPA Pe
row,SMILES,"Papp at 18 hours, 50 µM [×10⁻⁶ cm/s]"
1,CC(C)C[C@H]1C(=O)N(C)[C@@H](C)C(=O)N[C@@H](COC(C)(C)C)C(=O)N(C)[C@@H](C(C)C)C(=O)N[C@H](C(=O)N2CCCCC2)CC(=O)N(C)[C@@H](C)C(=O)N(C)[C@@H](Cc2ccccc2)C(=O)N[C@@H](C)C(=O)N(C)[C@@H](C)C(=O)N[C@@H](Cc2ccccc2)C(=O)N[C@@H]([C@@H](C)O)C(=O)N(C)[C@@H](C)C(=O)N1C [DP-317] ([NMeA][NMeF]A[NMeA]FT[NMeA][NMeL][NMeA]S(tBu)[NMeV]D-Piperidide; lactam N-12),20
2,CC(C)C[C@@H]1NC(=O)[C@H](Cc2ccccc2)N(C)C(=O)CCN(C)C(=O)C[C@@H](C(=O)N2CCCCC2)NC(=O)[C@H](Cc2ccccc2)N(C)C(=O)[C@H](C)N(C)C(=O)[C@H]([C@@H](C)O)NC(=O)CN(C)C(=O)[C@H](C(C)C)N(C)C(=O)[C@H](C)NC(=O)[C@H](C(C)C)N(C)C(=O)[C@H](CC(C)C)N(C)C1=O [DP-318] ([NMeβAla][NMeF]L[NMeL][NMeV]A[NMeV][Sar]T[NMeA][NMeF]D-Piperidide; lactam N-12),26
3,CC[C@H](C)[C@@H]1NC(=O)[C@H](Cc2ccccc2)N(C)C(=O)[C@H](CC(C)C)N(C)C(=O)[C@H](Cc2ccccc2)NC(=O)[C@H]([C@@H](C)O)NC(=O)[C@H](CC(C)C)N(C)C(=O)[C@H](CC(C)C)NC(=O)CCN(C)C(=O)C[C@@H](C(=O)N2CCCCC2)NC(=O)[C@H](CC(C)C)N(C)C1=O [DP-336] ([NMeβAla]L[NMeL]TF[NMeL][NMeF]I[NMeL]D-Piperidide; lactam N-10),35
4,CC(C)C[C@@H]1NC(=O)[C@@H](C)N(C)C(=O)C[C@@H](C(=O)N(C)[C@@H](Cc2ccccc2)C(=O)N[C@@H](C)C(=O)N2CCCCC2)NC(=O)[C@H](Cc2ccccc2)N(C)C(=O)[C@H](CC(C)C)N(C)C(=O)[C@H](Cc2ccccc2)NC(=O)[C@H]([C@@H](C)O)NC(=O)[C@H](CC(C)C)N(C)C(=O)[C@H](CC(C)C)N(C)C1=O [DP-359] ([dNMeA]L[NMeL][NMeL]TF[NMeL][NMeF]D[NMeF]A-Piperidide; lactam N-9),43
